{
  "source": "patent US7339026B2",
  "about": "“mda-9 protein” (The Trustees of Columbia University In the City of New York, priority 1996, dated 2008)",
  "type_in_all_cases": "cell-based, human",
  "key": {"[1]": {"tested_on": "mda-9 expression in H0-1 cells", "test": "mda-9 RNA expression by Northern blotting, equalized to GAPDH", "details": "H0-1 cells grown for 4 days in 10 ng/ml of MEZ", "experimental": "FIG. 1. Temporal expression of mda-9 in H0-1 cells exposed to IFN-β+MEZ. RNAs were isolated from untreated and H0-1 cells treated with IFN-β+MEZ (2000 U/ml+10 ng/ml) for 0.25, 0.5, 1, 2, 4, 8, 12 and 24 h. Ten micrograms of total cellular RNA were separated on 1% agarose gel, transferred to nylon membranes, sequentially hybridized with an mda-9 and then a GAPDH probe, and then exposed to autoradiography.\nFIG. 4. Effect of interferons on mda-9 expression in H0-1 cells. H0-1 cells were grown for 96 h in the absence or presence of IFN-α (100 and 1000 U/ml), IFN-β (100 and 1000 U/ml) or IFN-γ (100 U/ml) and RNA was analyzed as described in FIG. 1.\nFIGS. 9A-9B. Temporal and dose kinetics of IFN-γ enhancement in mda-9 expression in H0-1 human melanoma cells. H0-1 cells were treated for the indicated time (FIG. 9A) and dose (FIG. 9B) of IFN-γ, RNA was then isolated and analyzed by Northern blotting. […] Replicate samples varied by ≦15%.\n(§1) Cell Lines and Culture Conditions. H0-1 is a melanotic melanoma cell line produced from a metastatic inguinal lymph node lesion from a person and was used between passages 150 and 175 (13,21,22). FM516-SV is a normal human melanocyte culture immortalized by the SV40 T-antigen gene (23). Additional melanoma cell lines established from patients with metastatic melanomas that were evaluated, include LO-1, SH-1, WM239, MeWo, SKMEL-p53 wt (containing a wild-type p53 gene) and SKMEL-p53 mut (containing a mutant p53 gene) (13,21,24). Cultures were grown at 37° C. in a 95% air 5% C02-humidified incubator in Dulbecco's modified Eagle's medium (DMEM) supplemented with 5 or 10% fetal bovine serum (Hyclone, Utah). Cultures were maintained in the logarithmic phase of growth by subculturing (1:5 or 1:10) prior to confluence approximately every 4 to 7 d. For determining steady-state RNA expression, cultures were seeded at 1.5×10^6 cells per 10-cm tissue culture plate, and 24 h later the medium was changed without inducers or with IFN-β (2000 U/ml), MEZ (10 ng/ml) or IFN-β+MEZ (2000 U/ml+10 ng/ml). Total cytoplasmic RNA was isolated at various time points and analyzed for mda-9 and GAPDH expression.\nRNA Isolation, Northern Blotting and Southern Blotting of Genomic DNAs. Total cellular RNA was isolated by the guanidinium/phenol procedure and Northern blotting was performed as described (30-32). Ten μg of RNA were denatured with glyoxal/dimethyl sulfoxide (DMSO), electrophoresed on 1.0% agarose gels, transferred to nylon membranes and hybridized to a ^32P-labeled mda-9 probe and then after stripping the membranes were hybridized to a ^32P-labeled rat GAPDH probe (33) as described previously (30-32). […] RNA blots were quantitated by densitometric analysis using a Molecular Dynamics densitometer (Sunnyvale, Calif.) (34). […]"}, "[2]": {"tested_on": "SKMEL-p53 mut", "test": "Growth of cell line with IFN-β and MEZ, alone and in combination (Coulter Counter cell numbers)", "details": "96-h growth, IFN-β 2000 U/ml, MEZ 10 ng/ml, IFN-β + MEZ 2000 U/ml + 10 ng/ml", "experimental": "as §1"}, "[3]": {"tested_on": "FM516-SV", "test": "Growth of cell line with IFN-β and MEZ, alone and in combination (Coulter Counter cell numbers)", "details": "96-h growth, IFN-β 2000 U/ml, MEZ 10 ng/ml, IFN-β + MEZ 2000 U/ml + 10 ng/ml", "experimental": "as §1"}, "[4]": {"tested_on": "HO-1", "test": "Growth of cell line with IFN-β and MEZ, alone and in combination (Coulter Counter cell numbers)", "experimental": "as §1"}, "[5]": {"tested_on": "SKMEL-p53 wt", "test": "Growth of cell line with IFN-β and MEZ, alone and in combination (Coulter Counter cell numbers)", "details": "96-h growth, IFN-β 2000 U/ml, MEZ 10 ng/ml, IFN-β + MEZ 2000 U/ml + 10 ng/ml", "experimental": "as §1"}, "[6]": {"tested_on": "LO-1", "test": "Growth of cell line with IFN-β and MEZ, alone and in combination (Coulter Counter cell numbers)", "details": "96-h growth, IFN-β 2000 U/ml, MEZ 10 ng/ml, IFN-β + MEZ 2000 U/ml + 10 ng/ml", "experimental": "as §1"}, "[7]": {"tested_on": "MeWo", "test": "Growth of cell line with IFN-β and MEZ, alone and in combination (Coulter Counter cell numbers)", "details": "96-h growth, IFN-β 2000 U/ml, MEZ 10 ng/ml, IFN-β + MEZ 2000 U/ml + 10 ng/ml", "experimental": "as §1"}, "[8]": {"tested_on": "WM239", "test": "Growth of cell line with IFN-β and MEZ, alone and in combination (Coulter Counter cell numbers)", "details": "96-h growth, IFN-β 2000 U/ml, MEZ 10 ng/ml, IFN-β + MEZ 2000 U/ml + 10 ng/ml", "experimental": "as §1"}, "[9]": {"tested_on": "SH-1", "test": "Growth of cell line with IFN-β and MEZ, alone and in combination (Coulter Counter cell numbers)", "details": "96-h growth, IFN-β 2000 U/ml, MEZ 10 ng/ml, IFN-β + MEZ 2000 U/ml + 10 ng/ml", "experimental": "as §1"}, "[10]": {"details": "HO-1, 96-h growth, IFN-β 2000 U/ml, MEZ 10 ng/ml, IFN-β + MEZ 2000 U/ml + 10 ng/ml"}},
  "data": [
    {"molecule": "C=C(C)[C@@]12O[C@@]3(c4ccccc4)O[C@@H]1[C@@H]1[C@@H]4O[C@]4(CO)[C@@H](O)[C@]4(O)C(=O)C(C)=C[C@H]4[C@@]1(O3)[C@H](C)[C@H]2OC(=O)/C=C/C=C/c1ccccc1", "note": "[MEZ, mezerein, reference compound]", "values": [
      {"measurement": "mda-9 expression", "setting": "[1]", "value": "unaffected"},
      {"measurement": "Cell numbers (average of triplicate plates ± S.D.)", "setting": "[2]", "value": "21.5 ± 4.3"},
      {"measurement": "percent of control growth", "setting": "[2]", "value": 60, "unit": "%"},
      {"measurement": "Cell numbers (average of triplicate plates ± S.D.)", "setting": "[3]", "value": "12.7 ± 1.8"},
      {"measurement": "percent of control growth", "setting": "[3]", "value": 60, "unit": "%"},
      {"measurement": "growth reduction", "setting": "[4]; H0-1 cells grown for 4 days in 10 ng/ml of MEZ", "value": "~74", "unit": "%"},
      {"measurement": "Cell numbers (average of triplicate plates ± S.D.)", "setting": "[4]; [10]", "value": "16.8 ± 1.0"},
      {"measurement": "percent of control growth", "setting": "[4]; [10]", "value": 26, "unit": "%"},
      {"measurement": "Cell numbers (average of triplicate plates ± S.D.)", "setting": "[5]", "value": "3.6 ± 0.7"},
      {"measurement": "percent of control growth", "setting": "[5]", "value": 21, "unit": "%"},
      {"measurement": "Cell numbers (average of triplicate plates ± S.D.)", "setting": "[6]", "value": "4.7 ± 0.4"},
      {"measurement": "percent of control growth", "setting": "[6]", "value": 28, "unit": "%"},
      {"measurement": "Cell numbers (average of triplicate plates ± S.D.)", "setting": "[7]", "value": "15.4 ± 1.9"},
      {"measurement": "percent of control growth", "setting": "[7]", "value": 46, "unit": "%"},
      {"measurement": "Cell numbers (average of triplicate plates ± S.D.)", "setting": "[8]", "value": "19.7 ± 1.2"},
      {"measurement": "percent of control growth", "setting": "[8]", "value": 40, "unit": "%"},
      {"measurement": "Cell numbers (average of triplicate plates ± S.D.)", "setting": "[9]", "value": "14.1 ± 0.3"},
      {"measurement": "percent of control growth", "setting": "[9]", "value": 57, "unit": "%"}
    ]}
  ]
}
